Assay results from US10035814B2, “Guanine analogs as telomerase substrates and telomere length affectors” (Geron Corporation, priority 2011, dated 2018).
Several values for one entry are separate records, joined by “and”; a condition that tells them apart may be missing. Identical values can stand only once.

Columns and labels:
telomerase in HT3 cells = telomerase in HT3 cells (Homo sapiens (Human), UniProt O14746); assay: Ex vivo TRAP assay in HT3 cells; format: cell-based; details: HT3 cells; for EC50: 3 days, read-out: ExVivo TRAP EC50 (μM)- 3 Day Assay
Sequence of telomerase in HT3 cells (O14746 whole entry): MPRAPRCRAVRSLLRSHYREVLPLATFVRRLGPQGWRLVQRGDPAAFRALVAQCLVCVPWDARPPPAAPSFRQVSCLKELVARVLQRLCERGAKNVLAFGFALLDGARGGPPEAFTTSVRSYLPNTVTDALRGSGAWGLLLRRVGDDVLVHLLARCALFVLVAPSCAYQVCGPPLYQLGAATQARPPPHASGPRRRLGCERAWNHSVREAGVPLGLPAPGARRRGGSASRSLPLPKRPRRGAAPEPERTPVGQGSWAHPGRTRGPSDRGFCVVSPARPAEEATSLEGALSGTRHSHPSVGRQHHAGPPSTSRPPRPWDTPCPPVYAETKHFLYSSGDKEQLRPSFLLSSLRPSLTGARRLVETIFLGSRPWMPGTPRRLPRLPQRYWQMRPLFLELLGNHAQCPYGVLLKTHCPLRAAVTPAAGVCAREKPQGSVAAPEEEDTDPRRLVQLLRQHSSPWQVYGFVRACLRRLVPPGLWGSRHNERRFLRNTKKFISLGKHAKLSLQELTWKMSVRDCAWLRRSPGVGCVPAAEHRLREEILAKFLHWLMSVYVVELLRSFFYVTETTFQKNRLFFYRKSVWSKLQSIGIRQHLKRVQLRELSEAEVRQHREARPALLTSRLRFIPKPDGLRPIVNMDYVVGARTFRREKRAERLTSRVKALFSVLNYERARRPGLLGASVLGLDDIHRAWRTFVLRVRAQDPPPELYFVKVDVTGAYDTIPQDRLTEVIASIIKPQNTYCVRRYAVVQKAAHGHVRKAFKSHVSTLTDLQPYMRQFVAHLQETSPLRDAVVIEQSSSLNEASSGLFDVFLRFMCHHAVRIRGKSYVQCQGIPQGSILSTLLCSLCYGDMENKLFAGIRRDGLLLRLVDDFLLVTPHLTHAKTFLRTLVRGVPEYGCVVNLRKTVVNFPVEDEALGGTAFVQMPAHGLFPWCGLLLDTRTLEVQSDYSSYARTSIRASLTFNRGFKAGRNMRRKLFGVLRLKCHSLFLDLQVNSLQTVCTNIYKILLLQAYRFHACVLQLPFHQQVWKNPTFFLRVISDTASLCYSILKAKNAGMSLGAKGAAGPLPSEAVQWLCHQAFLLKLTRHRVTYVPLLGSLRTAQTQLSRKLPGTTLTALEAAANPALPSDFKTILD
Sequence of telomerase in HT3 cells (O60832 whole entry partner): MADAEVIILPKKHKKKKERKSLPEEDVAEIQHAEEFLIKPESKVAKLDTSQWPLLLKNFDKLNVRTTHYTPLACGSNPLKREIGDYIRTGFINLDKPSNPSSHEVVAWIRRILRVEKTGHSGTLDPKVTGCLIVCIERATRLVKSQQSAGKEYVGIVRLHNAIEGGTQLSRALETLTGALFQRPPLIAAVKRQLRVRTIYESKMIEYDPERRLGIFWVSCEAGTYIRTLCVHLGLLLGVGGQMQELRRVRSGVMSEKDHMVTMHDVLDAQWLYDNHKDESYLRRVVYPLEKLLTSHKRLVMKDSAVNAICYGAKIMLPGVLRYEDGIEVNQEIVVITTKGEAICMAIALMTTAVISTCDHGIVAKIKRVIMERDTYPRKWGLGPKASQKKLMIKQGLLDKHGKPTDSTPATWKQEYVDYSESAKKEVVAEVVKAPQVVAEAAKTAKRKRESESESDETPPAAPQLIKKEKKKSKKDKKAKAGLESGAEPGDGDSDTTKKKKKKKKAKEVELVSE
Sequence of telomerase in HT3 cells (Q9NX24 whole entry partner): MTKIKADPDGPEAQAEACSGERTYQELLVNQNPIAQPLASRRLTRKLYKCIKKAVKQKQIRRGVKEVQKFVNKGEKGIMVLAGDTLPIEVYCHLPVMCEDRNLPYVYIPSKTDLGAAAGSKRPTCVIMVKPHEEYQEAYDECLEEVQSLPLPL
Sequence of telomerase in HT3 cells (Q9NPE3 whole entry partner): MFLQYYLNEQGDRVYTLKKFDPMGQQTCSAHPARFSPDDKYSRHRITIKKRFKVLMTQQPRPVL
Sequence of telomerase in HT3 cells (Q9NY12 whole entry partner): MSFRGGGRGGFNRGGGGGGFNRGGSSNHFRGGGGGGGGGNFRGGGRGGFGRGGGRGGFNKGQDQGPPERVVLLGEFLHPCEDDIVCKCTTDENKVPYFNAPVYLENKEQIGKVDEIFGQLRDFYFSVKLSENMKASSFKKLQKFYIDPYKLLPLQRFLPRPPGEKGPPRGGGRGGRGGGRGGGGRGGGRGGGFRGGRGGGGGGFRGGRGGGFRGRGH
Sequence of telomerase in HT3 cells (Q9BUR4 whole entry partner): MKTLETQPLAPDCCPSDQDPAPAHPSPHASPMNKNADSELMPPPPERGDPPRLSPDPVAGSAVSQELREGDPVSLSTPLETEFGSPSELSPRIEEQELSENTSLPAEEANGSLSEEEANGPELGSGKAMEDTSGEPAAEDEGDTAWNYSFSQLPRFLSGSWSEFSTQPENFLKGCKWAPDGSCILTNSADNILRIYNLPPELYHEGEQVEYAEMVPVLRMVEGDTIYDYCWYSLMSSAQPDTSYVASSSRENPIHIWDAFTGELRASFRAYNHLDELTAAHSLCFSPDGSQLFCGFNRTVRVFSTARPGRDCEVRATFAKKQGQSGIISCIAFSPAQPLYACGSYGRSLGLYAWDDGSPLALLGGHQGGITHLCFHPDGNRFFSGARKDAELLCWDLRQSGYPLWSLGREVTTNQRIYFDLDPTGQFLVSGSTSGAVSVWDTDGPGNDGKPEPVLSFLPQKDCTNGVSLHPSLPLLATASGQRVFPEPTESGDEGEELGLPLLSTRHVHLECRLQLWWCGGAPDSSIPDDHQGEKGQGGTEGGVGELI
Experimental: HT3 cells were treated for three days with increasing concentrations of PMPG-diisopropyloxy ester ranging from 0.2 μM to 20 μM. Cells (HT3 RPMI+10% PBS) were incubated with compound for 24 hr after which PSTS primer (phosphorothioate-d(AATCCGTCGAGCAGAGTT (SEQ ID NO: 6) containing a 5′ Cy-5 label) (7.5 μM) and fresh compound are added for an additional 24 hr. Cells were lysed and endogenous telomerase inactivated by heating (15 min, 75° C.). Products were amplified by 30 cycles of PCR under TRAP conditions set forth above and quantified. The results of two independent experiments are shown in Table 4.
HT3 cells were treated for three days with increasing concentrations of one or more of the indicated compounds ranging from 0.2 μM to 20 μM. Cells (HT3 RPMI+10% FBS) were incubated with compound for 24 hours, after which PSTS primer (phosphorothioate-d AATCCGTCGAGCAGAGTT (SEQ ID NO: 6) containing a 5′ Cy-5 label) (7.5 μM) and fresh compound were added for an additional 24 hours. Cells were lysed and endogenous telomerase inactivated by heating (15 minutes, 75° C.). Products were amplified by 30 cycles of PCR under TRAP conditions set forth in Kim et al., Science 266:2011, […] (which reference is incorporated herein in its entirety) and quantified.

telomerase = telomerase (Homo sapiens (Human), UniProt O14746); assay: Primer extension assay for telomerase activity; format: biochemical; details: for EC50: read-out: Primer Ext. Assay EC50
Sequence of telomerase (O14746 whole entry): as the sequence (O14746 whole entry) above
Experimental: Purified human telomerase was incubated with d(TTAGGG)3 (SEQ ID NO: 1) and deoxy-nucleoside triphosphates for 90 minutes at 37° C. All reactions were done in the presence of 200 dTTP and 10 μM dATP (50,000 cpm/pmol a-^33P-dATP). Activity was determined by incubating affinity purified telomerase extract with 1 μM primer [d(TTAGGG)3] (SEQ ID NO: 1), 200 μM dTTP, 50 μM dGTP, 10 μM dATP, 10 μCi [α-^33P]dATP (2000-4000 Ci/mmol) in a buffer containing 50 mM (N-2-hydroxyethyl piperazine-N′-3 propanesulfonic acid)-NaOH pH 8.5, 1 mM MgCl2, 1 mM DTT, 5% glycerol, 0.5 mM EGTA and 100 mM KOAc in a final reaction volume of 40 μl. Primer extension products were analyzed on a 15% polyacrylamide gel containing 7 M urea. A characteristic telomerase ladder has multiple bands. If a compound is not a substrate then (TTAGGG)3TTA (21 nt) (SEQ ID NO: 2). If a compound is a chain terminator then (TTAGGG)3TTAG* (22 nt) (SEQ ID NO: 3).
Purified human telomerase was incubated with d(TTAGGG)3 (SEQ ID NO: 1) and deoxy-nucleoside triphosphates for 90 minutes at 37° C. All reactions were done in the presence of 200 dTTP and 10 μM dATP (50,000 cpm/pmol a-^33P-dATP). Activity was determined by incubating affinity purified telomerase extract with […] primer [d(TTAGGG)3] (SEQ ID NO: 1), […] [α-^33P]dATP (2000-4000 Ci/mmol) in a buffer containing 50 mM (N-2-hydroxyethyl piperazine-N′-3 propanesulfonic acid)-NaOH pH 8.5, 1 mM MgCl2, 1 mM DTT, 5% glycerol, 0.5 mM EGTA and 100 mM KOAc in a final reaction volume of 40 μl. Primer extension products were analyzed on a 15% polyacrylamide gel containing 7 M urea. A characteristic telomerase ladder has multiple bands. If a compound is not a substrate then (TTAGGG)3TTA (21 nt) (SEQ ID NO: 2). If a compound is a chain terminator then (TTAGGG)3TTAG* (22 nt) (SEQ ID NO: 3).

Structure (SMILES)	EC50 (telomerase in HT3 cells)	Primer Ext. Assay Notes: telomerase substrate / chain terminator (telomerase)	EC50 (telomerase)	other results
CC(Cn1cnc2c(=S)[nH]c(N)nc21)OCP(=O)(O)O (stereo not drawn) [compound 142694]	7.54 µM	–	–	–
Nc1nc2c(ncn2CC(OCP(=O)(O)OP(=O)(O)OP(=O)(O)O)C(F)(F)F)c(=O)[nH]1 (stereo not drawn) [Compound 142850]	–	Weak chain terminator.	–	–
C[C@H](Cn1cnc2c(=O)[nH]c(N)nc21)SCP(=O)(O)OP(=O)(O)OP(=O)(O)O [Compound 142823]	–	Weak chain terminator.	–	–
C[C@@H](COCP(=O)(O)OP(=O)(O)OP(=O)(O)O)Cn1cnc2c(=O)[nH]c(N)nc21 (stereo in doubt) [Compound 142860]	–	Weak chain terminator.	–	–
C=C(COCP(=O)(O)O)Cn1cnc2c(=O)[nH]c(N)nc21 [compound 142811]	2.6 µM	–	–	–
CC(Cn1cnc2c(=S)[nH]c(N)nc21)OCP(=O)(O)OP(=O)(O)OP(=O)(O)O (stereo not drawn) [Compound 142761]	–	Chain terminator	13.5 µM	–
CC(Cn1cnc2c(=O)[nH]c(N)nc21)OCP(=O)(O)O (single isomer, unassigned) [compound 142693]	11.7 µM	–	–	–
C=C(COCP(=O)(O)NCCCNCCCCN)Cn1cnc2c(=O)[nH]c(N)nc21 [compound 142873]	6.7 µM	–	–	–
CCCCCCCCCCNP(=O)(O)COC(C)Cn1cnc2c(=O)[nH]c(N)nc21 (stereo not drawn) [compound 142962]	1.44 µM	–	–	–
CC(C)(Cn1cnc2c(=O)[nH]c(N)nc21)OCP(=O)(O)OP(=O)(O)OP(=O)(O)O [Compound 142891]	–	Weak chain terminator.	–	–
C[C@H](CCn1cnc2c(=O)[nH]c(N)nc21)OCP(=O)(O)OP(=O)(O)OP(=O)(O)O [Compound 142915]	–	–	> 60 µM	–
CC(Cn1cnc2c(=S)[nH]c(N)nc21)OCP(=O)(O)OP(=O)(O)OP(=O)(O)O (stereo not drawn) [Compound 142752]	–	Weak chain terminator.	–	–
Nc1nc2c(ncn2CCCOCP(=O)(O)OP(=O)(O)OP(=O)(O)O)c(=O)[nH]1 [Compound 142848]	–	Chain terminator	1.5 µM	potency relative to PMPG (R-PMPGpp), times less potent (telomerase): ~2
CC(Cn1cnc2c(=O)[nH]c(N)nc21)OCP(=O)(O)OP(=O)(O)OP(=O)(O)O (stereo not drawn) [Compound 142751]	–	Weak chain terminator.	–	–
C=C(COCP(=O)(O)OP(=O)(O)OP(=O)(O)O)Cn1cnc2c(=O)[nH]c(N)nc21 [ID#142810, PMIBeG, free acid]	–	–	–	potency relative to PMPG (R-PMPGpp), times less potent (telomerase): approximately two times less potent than R-PMPGpp
CC(C)OC(=O)OCOP(=O)(COC(C)Cn1cnc2c(=O)[nH]c(N)nc21)OCOC(=O)OC(C)C (single isomer, unassigned) [ID#142748, PMPG prodrug, S form]	–	–	–	IC50 (telomerase in HT3 cells; 0.2 μM to 20 μM, two independent experiments, read-out: Ex vivo Assay IC 50): > 20 µM
Nc1nc2c(ncn2CC(CF)OCP(=O)(O)OP(=O)(O)OP(=O)(O)O)c(=O)[nH]1 (stereo not drawn) [Compound 142856]	–	Chain terminator.	7.5 µM	–
C=C(COCP(=O)(O)OP(=O)(O)OP(=O)(O)O)Cn1cnc2c(=O)[nH]c(N)nc21 [Compound 142810]	–	Chain Terminator.	1.4 µM	–
CC[C@H](Cn1cnc2c(=O)[nH]c(N)nc21)OCP(=O)(O)OP(=O)(O)OP(=O)(O)O [Compound 142916]	–	–	10 µM	–
CC(C)OC(=O)OCOP(=O)(COC(C)Cn1cnc2c(=O)[nH]c(N)nc21)OCOC(=O)OC(C)C (single isomer, unassigned) [compound 142715]	1.2 µM and 3.1 µM	–	–	–
CC(Cn1cnc2c(=O)[nH]c(N)nc21)OCP(=O)(O)NCCCNCCCCN (stereo not drawn) [compound 142812]	5 µM	–	–	–
CC(Cn1cnc2c(=O)[nH]c(N)nc21)OCP(=O)(O)NCCCNCCCCNCCCNP(=O)(O)COC(C)Cn1cnc2c(=O)[nH]c(N)nc21 (stereo not drawn) [compound 142942]	1.84 µM	–	–	–
CC(COCP(=O)(O)OP(=O)(O)OP(=O)(O)O)Cn1cnc2c(=O)[nH]c(N)nc21 (stereo not drawn) [Compound 142846]	–	Chain terminator.	4.4 µM	–
CC(Cn1cnc2c(=O)[nH]c(N)nc21)OCP(=O)(O)OP(=O)(O)OP(=O)(O)O (single isomer, unassigned) [Compound 142692]	–	Chain terminator.	0.5 to 1.2 µM	–
CC(COCP(=O)(O)OP(=O)(O)OP(=O)(O)O)n1cnc2c(=O)[nH]c(N)nc21 (stereo not drawn) [Compound 142879]	–	Chain terminator.	3.1 µM	–
